Data from US6979436B2, “Opioid metallopeptide compositions and methods” (Palatin Technologies, Inc., priority 1999, dated 2005).
Non-standard residues stand in square brackets, D forms with d. No end group written: not given here. hTyr = N[C@@H](CCc1ccc(O)cc1)C(=O)O; hPhe = N[C@@H](CCc1ccccc1)C(=O)O; Phg = N[C@H](C(=O)O)c1ccccc1; Ava = NCCCCC(=O)O; βAla = NCCC(=O)O

Experiments:
[1] = molecular target: δ receptors, mouse vas deferens (MVD) (Mus musculus, UniProt P32300); experiment: mouse vas deferens (MVD) in vitro functional assay; conditions: for MVD observed percent efficacy at 10 μM: value in brackets; for MVD functional activity class / EC50: mouse vas deferens; for EC50: read-out: In Vitro Functional Assay [ED50 in μM] MVD, rhenium-complexed peptides
Chain of δ receptors, mouse vas deferens (MVD) (P32300 whole entry): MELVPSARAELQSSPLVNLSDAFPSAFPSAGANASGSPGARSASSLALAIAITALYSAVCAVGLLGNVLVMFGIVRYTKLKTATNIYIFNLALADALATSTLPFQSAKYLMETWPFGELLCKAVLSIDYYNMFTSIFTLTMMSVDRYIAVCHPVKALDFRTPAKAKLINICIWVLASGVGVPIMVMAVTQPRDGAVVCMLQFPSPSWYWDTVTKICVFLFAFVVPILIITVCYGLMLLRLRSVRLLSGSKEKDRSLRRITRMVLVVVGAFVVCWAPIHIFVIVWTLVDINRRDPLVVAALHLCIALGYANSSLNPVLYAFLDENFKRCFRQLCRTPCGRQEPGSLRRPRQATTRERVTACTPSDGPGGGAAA

[2] = tested on: μ receptors, guinea pig ileum (GPI); experiment: guinea pig ileum (GPI) in vitro functional assay; conditions: for GPI functional activity class / EC50: guinea pig ileum; for GPI observed percent efficacy at 10 μM: value in brackets; for EC50: read-out: In Vitro Functional Assay [ED50 in μM] GPI, rhenium-complexed peptides
κ opiate receptor = κ opiate receptor (Cavia porcellus, UniProt P41144); experiment: κ receptor binding assay, guinea-pig brain membrane, 3H-U69593 displacement; conditions: read-out: Receptor Binding Assay [Ki in μM] Kappa Receptor
Chain of κ opiate receptor (P41144 whole entry): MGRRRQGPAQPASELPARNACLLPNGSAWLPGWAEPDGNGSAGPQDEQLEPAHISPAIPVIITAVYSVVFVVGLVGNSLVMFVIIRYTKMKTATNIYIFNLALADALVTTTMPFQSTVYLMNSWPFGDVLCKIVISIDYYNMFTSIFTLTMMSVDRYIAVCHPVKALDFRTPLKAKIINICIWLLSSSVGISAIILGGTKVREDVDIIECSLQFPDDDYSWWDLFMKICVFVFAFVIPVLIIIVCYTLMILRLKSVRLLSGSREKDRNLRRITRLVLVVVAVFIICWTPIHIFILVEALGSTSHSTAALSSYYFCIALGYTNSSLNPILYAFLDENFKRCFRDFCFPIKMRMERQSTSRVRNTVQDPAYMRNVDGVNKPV

**Q.** What does the source list for Y[dA]CF-NH2?
**A.** MVD observed percent efficacy at 10 μM [1]: 16%; GPI [ED40] ([2]; ED40 instead of ED50): 3.06 ± 0.29 µM

**Q.** How did the “MVD functional activity class” value [1] turn out when “Tyr-Gly-Cys-Phg-NH2 (YGC[Phg]-NH2; also: rhenium complex)” was run?
**A.** WPA

**Q.** And the “GPI functional activity class” value [2]?
**A.** WPA

**Q.** Which results are given for Tyr-[dK]-Cys-OH?
**A.** MVD observed percent efficacy at 10 μM [1]: 9%; GPI observed percent efficacy at 10 μM [2]: 57%

**Q.** What does the source list for YGGCF [Tyr-Gly-Gly-Cys-Phe-NH2]?
**A.** EC50 [1]: > 10 µM; EC50 [2]: > 10 µM

**Q.** How did the EC50 [2] turn out when Y[dK]CF was run?
**A.** 3.03 ± 0.43 µM

**Q.** Which “MVD observed percent efficacy at 10 μM” value [1] does the source give for “(p-OH)—C6H4(CH2)2—NH—CO—CH(NH2)—(CH2)2—CO-Gly-Phe-D-Cys-NH2” here?
**A.** 9%

**Q.** For “Tyr-Ala-Phe-Cys-OH (YAFC-OH; also: rhenium complex)”, which “MVD observed percent efficacy at 10 μM” value [1] is on record?
**A.** 48%

**Q.** What about the “GPI observed percent efficacy at 10 μM” value [2] of the same substance?
**A.** 8%

**Q.** With YCGFC [Tyr-Cys-Gly-Phe-Cys-NH2] as the substance, how does the Ki (κ opiate receptor) read?
**A.** 2.1 µM

**Q.** What about the EC50 [2] of the same substance?
**A.** 0.612 µM

**Q.** How did the “GPI functional activity class” value [2] turn out when “Tyr-Ala-Cys-Phg-NH2 (YAC[Phg]-NH2; also: rhenium complex)” was run?
**A.** WPA

**Q.** With “Tyr-β-Ala-Gly-Phe-Cys-NH2 (Y[βAla]GFC-NH2; also: rhenium complex)” as the substance, how does the “MVD observed percent efficacy at 10 μM” value [1] read?
**A.** 22%

**Q.** Which results are given for Lys-Tyr-Cys-OH?
**A.** MVD observed percent efficacy at 10 μM [1]: 41%; GPI observed percent efficacy at 10 μM [2]: 34%

**Q.** With “Tyr-Cys-Gly-Cys-NH2 (YCGC-NH2; cysteine pairing not given here; also: rhenium complex)” as the substance, how does the “MVD observed percent efficacy at 10 μM” value [1] read?
**A.** 34%

**Q.** And the “GPI observed percent efficacy at 10 μM” value [2]?
**A.** 14%

**Q.** Which “MVD [ED30]” value ([1]; ED30 instead of ED50) does the source give for “Tyr-Val-Cys-Phe-NH2 (YVCF-NH2; also: rhenium complex)” here?
**A.** 1.42 ± 0.21 µM

**Q.** Y[βAla]GF[dC]-NH2 was tested. Which “MVD observed percent efficacy at 10 μM” value [1] did it give?
**A.** 30%

**Q.** Which results are given for YC[dF]G-NH2?
**A.** EC50 [1]: > 10 µM; EC50 [2]: > 10 µM

**Q.** “NH2(CH2)4—CO-Phe-Asp-Cys-HTyr-NH2 ([Ava]FDC[hTyr]-NH2; also: rhenium complex)” was tested. Which “MVD observed percent efficacy at 10 μM” value [1] did it give?
**A.** 20%

**Q.** HTyr-β-Ala-Gly-Phe-D-Cys-NH2 was tested. Which “MVD observed percent efficacy at 10 μM” value [1] did it give?
**A.** 11%

**Q.** With Leu-Enkephalin [reference compound] as the substance, how does the EC50 [2] read?
**A.** 0.246 µM

**Q.** With [dK]-Tyr-Cys-OH as the substance, how does the “MVD observed percent efficacy at 10 μM” value [1] read?
**A.** 18%

**Q.** And the “GPI observed percent efficacy at 10 μM” value [2]?
**A.** 28%

**Q.** For “HTyr-β-Ala-Gly-Phe-Cys-NH2 ([hTyr][βAla]GFC-NH2; also: rhenium complex)”, which “MVD observed percent efficacy at 10 μM” value [1] is on record?
**A.** 30%

**Q.** How did the EC50 [1] turn out when YAGFC [Tyr-Ala-Gly-Phe-Cys-NH2] was run?
**A.** > 10 µM

**Q.** What about the EC50 [2] of the same substance?
**A.** > 10 µM

**Q.** For YGCF [Tyr-Gly-Cys-Phe-NH2], which EC50 [1] is on record?
**A.** 1.35 µM

**Q.** And the EC50 [2]?
**A.** > 10 µM

**Q.** How did the “MVD functional activity class” value [1] turn out when “Tyr-Ala-Cys-HPhe-NH2 (YAC[hPhe]-NH2; also: rhenium complex)” was run?
**A.** WPA

**Q.** And the “GPI functional activity class” value [2]?
**A.** WPA

**Q.** What does the source list for “Tyr-Ala-Cys-Phe-NH2 (YACF-NH2; also: rhenium complex)”?
**A.** MVD functional activity class [1]: WPA; GPI functional activity class [2]: WPA

**Q.** How did the “MVD observed percent efficacy at 10 μM” value [1] turn out when Tyr-Lys-Cys-OH was run?
**A.** 48%

**Q.** And the “GPI observed percent efficacy at 10 μM” value [2]?
**A.** 41%

**Q.** What does the source list for YG[dF]C-NH2?
**A.** EC50 [1]: > 10 µM; EC50 [2]: > 10 µM

**Q.** What does the source list for “Tyr-Gly-Cys-HPhe-NH2 (YGC[hPhe]-NH2; also: rhenium complex)”?
**A.** MVD functional activity class [1]: WPA; GPI functional activity class [2]: WPA

**Q.** For Y[βAla]FGC-OH, which “MVD observed percent efficacy at 10 μM” value [1] is on record?
**A.** 17%

**Q.** What about the “GPI observed percent efficacy at 10 μM” value [2] of the same substance?
**A.** 51%
